We go through eleven molecules from patent US5314819A, “Protein having nitrile hydratase activity obtained from rhizobium, gene encoding the same, and a method for producing amides from nitriles via a transformant containing the gene” (Mitsubishi Kasei Corporation, priority 1992, dated 1994).

Structures are written as SMILES.

In one assay the test system is AM24 protein. Kind of assay: Evaluation of the nitrile hydratase activity of AM24 protein (2): substrate specificity. The assay is classed as biochemical, Rhizobium sp. MCI2643. The following applies: activity defined as 100 when acrylonitrile is the substrate; 0.2% (v/v) nitrile solution, 25° C., 5 minutes, pH 7.0; amide measured by HPLC. Here is the method: One volume of the AM24 protein solution (its absorbance was 0.1 at 280 nm) and 4 volumes of 0.5M phosphate buffer, pH 7.0 were mixed together, to which were added 90 volumes of a 0.2% (v/v) solution of a nitrile compound for reaction at 25° C. for 5 minutes. After the reaction, 5 volumes of 1N HCl were added to terminate the reaction, and the resulting solution was then applied to an ODS column for HPLC, to measure the resulting amide compound. As the nitrile compound as the substrate, use was made of acrylonitrile, propionitrile, n-butyronitrile, isobutyronitrile, acetonitrile, chloroacetonitrile, malonamidenitrile, methacrylonitrile, 3-cyanopyridine, benzonitrile, and chrotononitrile.
The relative activity of each substrate is shown in Table 1, provided that the activity is defined as 100 when acrylonitrile is used as a reaction substrate.
Take `CC(C)C#N` [Isobutyronitrile]: the “Specific activity (%) (relative activity of each substrate)” value was found to be 28%. As for `CCCC#N` [n-Butyronitrile], the “Specific activity (%) (relative activity of each substrate)” value is 152%. For the molecule `CCC#N` [Propionitrile], the “Specific activity (%) (relative activity of each substrate)” value came to 59%. The same measure, in the same setting: under `N#CCCl` [Chloroacetonitrile] stands 671%; under `C=CC#N` [Acrylonitrile], 100%; under `CC=CC#N` [Chrotononitrile], 34%. On to `CC#N` [Acetonitrile], for which the “Specific activity (%) (relative activity of each substrate)” value came out at 47%. Turning to `C=C(C)C#N` [Methacrylonitrile], the “Specific activity (%) (relative activity of each substrate)” value was found to be 143%. In the case of `N#Cc1ccccc1` [Benzonitrile], the “Specific activity (%) (relative activity of each substrate)” value turned out to be 251%. On to `N#Cc1cccnc1` [3-Cyanopyridine], for which the “Specific activity (%) (relative activity of each substrate)” value was 9%. For the molecule `N#CCC(N)=O` [Malonamidenitrile], the “Specific activity (%) (relative activity of each substrate)” value is 143%.

For another assay, the system named is transformant containing the pEAM24X1. The assay is described as follows: Conversion of a nitrile into an amide using the transformant containing pEAM24X1. It is filed as cell-based, Escherichia coli DH5 α. The following applies: transformant cultured with CoCl2 and IPTG; aqueous 7% acrylonitrile solution, 30° C., 1 hour; HPLC. On the procedure:
The transformant containing the pEAM24X1 obtained in Example 7 was cultured overnight at 27° C. in 10 ml of an LB culture medium (containing 50 μg/ml Ampicillin). […] The strain were centrifuged and harvested, washed once in physiological saline, and suspended in 1.6 ml of a phosphate buffer (pH 7.0, 0.1M). 0.32 ml of the suspension was sampled, followed by mixing with 80 μl of an aqueous 7% acrylonitrile solution for reaction at 30° C. for 1 hour. After the termination of the reaction by addition of HCl as described before, the acrylamide and acrylonitrile concentrations in the reaction solution were determined by HPLC.
Thus cobalt is essential for nitrile hydratase activity.
`C=CC#N` [Acrylonitrile]: the “conversion of acrylonitrile to acrylamide” value is reported as “complete”.

Staying with this assay, now noted: transformant harboring pEAM24X1 cultured in a culture medium without cobalt.
For the molecule `C=CC#N` [Acrylonitrile], the “acrylamide in the reaction solution after termination of the reaction” value was “no acrylamide was detected”.
